Experimental data from PubChem BioAssay (NCI).
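These data come from cells grown in 96-well plates and exposed to compound for 48 hours at five concentrations. GI50 = concentration required for 50% inhibition of growth. TGI: concentration producing complete growth inhibition.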

Assays:
Assay in all cases: NCI tumour cell line growth inhibition, 48 h
HCT-116 colon = tested on: HCT-116 colon
SK-OV-3 ovarian = tested on: SK-OV-3 ovarian
SNB-19 CNS = tested on: SNB-19 CNS
UACC-62 melanoma = tested on: UACC-62 melanoma
CCRF-CEM leukemia = tested on: CCRF-CEM leukemia
SF-295 CNS = tested on: SF-295 CNS
LOX IMVI melanoma = tested on: LOX IMVI melanoma
HOP-62 NSCLC = tested on: HOP-62 NSCLC
IGROV1 ovarian = tested on: IGROV1 ovarian
OVCAR-4 ovarian = tested on: OVCAR-4 ovarian
UACC-257 melanoma = tested on: UACC-257 melanoma
DU-145 prostate = tested on: DU-145 prostate
HS 578T breast = tested on: HS 578T breast
MCF7 breast = tested on: MCF7 breast
SR leukemia = tested on: SR leukemia
UO-31 renal = tested on: UO-31 renal
KM12 colon = tested on: KM12 colon
SN12C renal = tested on: SN12C renal
RXF 393 renal = tested on: RXF 393 renal
HOP-92 NSCLC = tested on: HOP-92 NSCLC
MDA-MB-231 breast = tested on: MDA-MB-231 breast
SF-268 CNS = tested on: SF-268 CNS
MDA-MB-435 = tested on: MDA-MB-435
K-562 leukemia = tested on: K-562 leukemia
U251 CNS = tested on: U251 CNS
OVCAR-5 ovarian = tested on: OVCAR-5 ovarian
HCC-2998 colon = tested on: HCC-2998 colon
TK-10 renal = tested on: TK-10 renal
MALME-3M melanoma = tested on: MALME-3M melanoma
HL-60(TB) leukemia = tested on: HL-60(TB) leukemia
NCI/ADR-RES ovarian = tested on: NCI/ADR-RES ovarian
RPMI-8226 leukemia = tested on: RPMI-8226 leukemia
SF-539 CNS = tested on: SF-539 CNS
M14 melanoma = tested on: M14 melanoma
SK-MEL-5 melanoma = tested on: SK-MEL-5 melanoma
MOLT-4 leukemia = tested on: MOLT-4 leukemia
NCI-H226 lung = tested on: NCI-H226 lung
SK-MEL-28 melanoma = tested on: SK-MEL-28 melanoma
SNB-75 CNS = tested on: SNB-75 CNS
MDA-MB-468 breast = tested on: MDA-MB-468 breast
SK-MEL-2 melanoma = tested on: SK-MEL-2 melanoma
HT29 colon = tested on: HT29 colon
HCT-15 colon = tested on: HCT-15 colon
SW-620 colon = tested on: SW-620 colon
786-0 renal = tested on: 786-0 renal
PC-3 prostate = tested on: PC-3 prostate
NCI-H460 lung = tested on: NCI-H460 lung
COLO 205 colon = tested on: COLO 205 colon
EKVX NSCLC = tested on: EKVX NSCLC
NCI-H522 lung = tested on: NCI-H522 lung
ACHN renal = tested on: ACHN renal
BT-549 breast = tested on: BT-549 breast
OVCAR-8 ovarian = tested on: OVCAR-8 ovarian
OVCAR-3 ovarian = tested on: OVCAR-3 ovarian
CAKI-1 renal = tested on: CAKI-1 renal
A549 NSCLC = tested on: A549 NSCLC
T-47D breast = tested on: T-47D breast
NCI-H23 lung = tested on: NCI-H23 lung
A498 renal = tested on: A498 renal

## C[C@H]1[C@H](C)CC[C@]2(COC(=O)CCC(=O)NCC#CCN3CCNCC3)CC[C@]3(C)C(=CC[C@@H]4[C@@]5(C)CCCNC(C)(C)[C@@H]5CC[C@]43C)[C@H]12
HCT-116 colon
  GI50: 11.5 µM
  TGI: 23.6 µM
SK-OV-3 ovarian
  GI50: 19.4 µM
  TGI: 44.7 µM
SNB-19 CNS
  GI50: 15.7 µM
  TGI: 29.1 µM
UACC-62 melanoma
  GI50: 14 µM
  TGI: 27.2 µM
CCRF-CEM leukemia
  GI50: 16.8 µM
  TGI: 48.2 µM
SF-295 CNS
  GI50: 22.5 µM
  TGI: 57.2 µM
LOX IMVI melanoma
  GI50: 20.5 µM
  TGI: 44.7 µM
HOP-62 NSCLC
  GI50: 18.9 µM
  TGI: 36.8 µM
IGROV1 ovarian
  GI50: 14.3 µM
  TGI: 27.3 µM
OVCAR-4 ovarian
  GI50: 25.1 µM
  TGI: 72.9 µM
UACC-257 melanoma
  GI50: 16.5 µM
  TGI: 33.5 µM
DU-145 prostate
  GI50: 17.5 µM
  TGI: 31.2 µM
HS 578T breast
  GI50: 20.9 µM
  TGI: 55.7 µM
MCF7 breast
  GI50: 12.7 µM
  TGI: 25.3 µM
SR leukemia
  GI50: 15.4 µM
  TGI: 61.5 µM
UO-31 renal
  GI50: 12 µM
  TGI: 24.3 µM
KM12 colon
  GI50: 17.5 µM
  TGI: 34 µM
SN12C renal
  GI50: 14.7 µM
  TGI: 28.8 µM
RXF 393 renal
  GI50: 18.2 µM
  TGI: 45.6 µM
HOP-92 NSCLC
  GI50: 13.2 µM
  TGI: 41.7 µM
MDA-MB-231 breast
  GI50: 18.2 µM
  TGI: 32.1 µM
SF-268 CNS
  GI50: 17.9 µM
  TGI: 40.1 µM
MDA-MB-435
  GI50: 14.1 µM
  TGI: 27.5 µM
K-562 leukemia
  GI50: 6.02 µM
  TGI: 20.5 µM
U251 CNS
  GI50: 16.9 µM
  TGI: 32 µM
OVCAR-5 ovarian
  GI50: 17.2 µM
  TGI: 30.9 µM
HCC-2998 colon
  GI50: 15.1 µM
  TGI: 29.2 µM
TK-10 renal
  GI50: 18.9 µM
  TGI: 37.4 µM
MALME-3M melanoma
  GI50: 15.8 µM
  TGI: 29.2 µM
HL-60(TB) leukemia
  GI50: 4.98 µM
  TGI: 27.1 µM
NCI/ADR-RES ovarian
  GI50: 17.4 µM
  TGI: 34.6 µM
RPMI-8226 leukemia
  GI50: 17 µM
  TGI: 94.5 µM
SF-539 CNS
  GI50: 13.9 µM
  TGI: 26.8 µM
M14 melanoma
  GI50: 15.7 µM
  TGI: 30.9 µM
SK-MEL-5 melanoma
  GI50: 14.2 µM
  TGI: 31.9 µM
MOLT-4 leukemia
  GI50: 9.96 µM
  TGI: 32.9 µM
NCI-H226 lung
  GI50: 27.3 µM
  TGI: > 100 µM
SK-MEL-28 melanoma
  GI50: 16.4 µM
  TGI: 30 µM
SNB-75 CNS
  GI50: 13.3 µM
  TGI: 37.8 µM
MDA-MB-468 breast
  GI50: 10.7 µM
  TGI: 25.9 µM
SK-MEL-2 melanoma
  GI50: 17.7 µM
  TGI: 33.4 µM
HT29 colon
  GI50: 12.3 µM
  TGI: 26.1 µM
HCT-15 colon
  GI50: 14.5 µM
  TGI: 27.6 µM
SW-620 colon
  GI50: 15.5 µM
  TGI: 28.9 µM
786-0 renal
  GI50: 15 µM
  TGI: 34.6 µM
PC-3 prostate
  GI50: 11 µM
  TGI: 27.3 µM
NCI-H460 lung
  GI50: 16.5 µM
  TGI: 30.1 µM
COLO 205 colon
  GI50: 18.3 µM
  TGI: 36 µM
EKVX NSCLC
  GI50: 15.9 µM
  TGI: 32.2 µM
NCI-H522 lung
  GI50: 16.4 µM
  TGI: 33.7 µM
ACHN renal
  GI50: 16.4 µM
  TGI: 30 µM
BT-549 breast
  GI50: 16.2 µM
  TGI: 32.7 µM
OVCAR-8 ovarian
  GI50: 19 µM
  TGI: 37.9 µM
OVCAR-3 ovarian
  GI50: 14.1 µM
  TGI: 27.6 µM
CAKI-1 renal
  GI50: 14.7 µM
  TGI: 28.4 µM
A549 NSCLC
  GI50: 14.9 µM
  TGI: 28.1 µM
T-47D breast
  GI50: 19 µM
  TGI: 44.4 µM
NCI-H23 lung
  GI50: 16.2 µM
  TGI: 30.7 µM
A498 renal
  GI50: 15.1 µM
  TGI: 28.3 µM
